Measurements: ChEMBL document CHEMBL1131661, “Use of the Suzuki reaction for the synthesis of aryl-substituted heterocycles as corticotropin-releasing hormone (CRH) antagonists” (Bioorg Med Chem Lett, 1999)

Biological target: T1, Corticotropin-releasing factor receptor 1 (Homo sapiens, UniProt P34998)
T1 sequence (P34998 whole entry): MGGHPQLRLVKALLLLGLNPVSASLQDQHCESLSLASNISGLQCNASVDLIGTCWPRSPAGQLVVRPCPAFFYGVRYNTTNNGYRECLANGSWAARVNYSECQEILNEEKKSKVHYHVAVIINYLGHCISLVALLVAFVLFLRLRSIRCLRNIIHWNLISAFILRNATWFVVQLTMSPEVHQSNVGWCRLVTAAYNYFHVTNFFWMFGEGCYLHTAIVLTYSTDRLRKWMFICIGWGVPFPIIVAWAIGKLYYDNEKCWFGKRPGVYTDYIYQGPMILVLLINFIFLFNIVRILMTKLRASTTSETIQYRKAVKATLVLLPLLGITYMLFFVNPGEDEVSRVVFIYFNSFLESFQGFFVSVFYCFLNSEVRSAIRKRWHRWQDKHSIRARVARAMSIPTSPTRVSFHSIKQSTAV
Test: Antagonistic activity for Corticotropin releasing factor receptor 1
Type: functional

SMILES | Ki [nM]
COc1cc(Br)c(Nc2nc(C)nc(-c3ccccc3C(F)(F)F)c2[N+](=O)[O-])c(OC)c1 | 23.1
CCN(c1nc(C)nc(-c2ccccc2C(F)(F)F)n1)c1ccc(C(C)C)cc1Br | 5.5
COc1cc(Br)c(-n2c(=O)n(C)c3c(-c4ccccc4C(F)(F)F)nc(C)nc32)c(OC)c1 | 95.5
COc1cc(Br)c(Nc2nc(C)nc(-c3ccccc3C(F)(F)F)c2N)c(OC)c1 | 60.3
COc1cc(Br)c(-n2c(C)nc3c(-c4ccccc4C(F)(F)F)nc(C)nc32)c(OC)c1 | 32.3
CCN(CC1CC1)c1nc(C)nc(Nc2c(Cl)cc(Cl)cc2Cl)c1C | 2
CSc1nn(-c2c(Cl)cc(Cl)cc2Cl)c2nc(C)nc(-c3ccccc3C(F)(F)F)c12 | 33.4
COc1cc(Br)c(-n2c(=O)[nH]c3c(-c4ccccc4C(F)(F)F)nc(C)nc32)c(OC)c1 | 202
Cc1cc(C)c(-n2nnc3c(-c4ccccc4C(F)(F)F)nc(C)nc32)c(C)c1 | 168
Cc1cc(C)c(-n2c(C)c(C)c3c(-c4ccccc4C(F)(F)F)nc(C)nc32)c(C)c1 | 9.7
COc1cc(Br)c(-n2nnc3c(-c4ccccc4C(F)(F)F)nc(C)nc32)c(OC)c1 | 21.4
CCCCN(CC)c1nc(C)nc2c1nnn2-c1c(Br)cc(OC)cc1OC | 3.5
